Our source for the IC50 values is ChEMBL document CHEMBL1146610, “Improved gelatinase a selectivity by novel zinc binding groups containing galardin derivatives” (Bioorg Med Chem Lett, 2003).

The target of one assay is T1, Interstitial collagenase (Homo sapiens, UniProt P03956).
T1 sequence (P03956 whole entry): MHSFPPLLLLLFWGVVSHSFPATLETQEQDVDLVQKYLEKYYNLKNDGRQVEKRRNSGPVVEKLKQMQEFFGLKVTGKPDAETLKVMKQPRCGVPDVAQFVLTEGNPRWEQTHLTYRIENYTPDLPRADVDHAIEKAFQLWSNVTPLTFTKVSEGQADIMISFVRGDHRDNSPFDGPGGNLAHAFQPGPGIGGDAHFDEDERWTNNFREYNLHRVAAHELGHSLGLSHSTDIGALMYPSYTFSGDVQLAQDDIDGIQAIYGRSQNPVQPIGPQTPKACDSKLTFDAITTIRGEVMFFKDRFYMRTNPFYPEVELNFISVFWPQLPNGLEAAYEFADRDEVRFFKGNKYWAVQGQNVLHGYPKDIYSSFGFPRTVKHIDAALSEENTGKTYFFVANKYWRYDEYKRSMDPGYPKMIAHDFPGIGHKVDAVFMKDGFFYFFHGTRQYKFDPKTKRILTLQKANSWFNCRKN
The experiment in a line: Inhibition of matrix metalloprotease-1.

The target in assay [1] is 72 kDa type IV collagenase (Homo sapiens, UniProt P08253). The assay is described as follows: Inhibition of Matrix metalloprotease-2.

Bounds are passed on as bounds.

72 kDa type IV collagenase, sequence (P08253 whole entry): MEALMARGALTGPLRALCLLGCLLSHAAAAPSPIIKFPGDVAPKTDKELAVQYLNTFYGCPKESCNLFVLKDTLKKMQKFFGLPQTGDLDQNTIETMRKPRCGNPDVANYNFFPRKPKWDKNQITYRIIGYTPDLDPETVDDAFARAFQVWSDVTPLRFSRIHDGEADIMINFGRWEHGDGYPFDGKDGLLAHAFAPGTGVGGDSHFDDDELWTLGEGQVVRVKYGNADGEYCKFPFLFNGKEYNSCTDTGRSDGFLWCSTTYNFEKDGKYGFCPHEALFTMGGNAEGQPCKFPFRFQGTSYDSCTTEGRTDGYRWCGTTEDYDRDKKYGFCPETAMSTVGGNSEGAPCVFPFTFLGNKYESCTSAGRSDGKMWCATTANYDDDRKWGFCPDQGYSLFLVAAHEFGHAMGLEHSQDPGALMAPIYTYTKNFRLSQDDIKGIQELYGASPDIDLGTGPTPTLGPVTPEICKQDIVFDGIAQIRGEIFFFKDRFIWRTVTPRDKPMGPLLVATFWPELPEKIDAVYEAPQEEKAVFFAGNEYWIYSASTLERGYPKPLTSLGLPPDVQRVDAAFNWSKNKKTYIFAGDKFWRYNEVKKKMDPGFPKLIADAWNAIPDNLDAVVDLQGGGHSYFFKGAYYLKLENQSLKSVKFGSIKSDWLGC

Usually IC50 stands for the point on the concentration scale where inhibition reaches its midpoint. Regarding `CNC(=O)[C@H](Cc1c[nH]c2ccccc12)NC(=O)[C@@H](CC(=O)c1ccc[nH]1)CC(C)C`, the IC50 came to 860 nM at Interstitial collagenase and 540 nM in assay [1].
As to `CNC(=O)C(Cc1c[nH]c2ccccc12)NC(=O)[C@@H](CC(=O)Nc1ccccn1)CC(C)C` (stereo partly specified), the IC50 was found to be 60 nM on Interstitial collagenase and 50 nM in assay [1].
Regarding `CNC(=O)C(Cc1c[nH]c2ccccc12)NC(=O)[C@@H](CC(=O)O)CC(C)C` (stereo partly specified), in assay [1], half-maximal inhibition (IC50) was put at 20 nM.
Regarding `CNC(=O)C(Cc1c[nH]c2ccccc12)NC(=O)[C@@H](CC(=O)NN)CC(C)C` (stereo partly specified), the IC50 came out at 50 nM against Interstitial collagenase and 550 nM in assay [1].
Consider `CNC(=O)C(Cc1c[nH]c2ccccc12)NC(=O)[C@@H](CC(=O)NNS(=O)(=O)c1ccc(C)cc1)CC(C)C` (stereo partly specified), for which the figures for the IC50 (at Interstitial collagenase; in assay [1]) were above 10000 nM and 30 nM, respectively.
On the same counts, the results for `CNC(=O)[C@H](Cc1c[nH]c2ccccc12)NC(=O)[C@@H](CC(=O)c1ccccn1)CC(C)C` are 730 nM and 180 nM.
